According to ChEMBL document CHEMBL4831499, “Benzimidazole-galactosides bind selectively to the Galectin-8 N-Terminal domain: Structure-based design and optimisation” (Eur J Med Chem, 2021):
pKd: −log10 of the molar value. Active and inactive are the calls of the source. The calls are words filed in the database; no cut-off is given here.

Tests used:
[1] = molecular target: T1, Galectin-8 (Homo sapiens, UniProt O00214); experiment: Binding affinity to human galactin-8 N terminal domain assessed as dissociation constant by competitive fluorescence polarization assay
T1 sequence (O00214 whole entry): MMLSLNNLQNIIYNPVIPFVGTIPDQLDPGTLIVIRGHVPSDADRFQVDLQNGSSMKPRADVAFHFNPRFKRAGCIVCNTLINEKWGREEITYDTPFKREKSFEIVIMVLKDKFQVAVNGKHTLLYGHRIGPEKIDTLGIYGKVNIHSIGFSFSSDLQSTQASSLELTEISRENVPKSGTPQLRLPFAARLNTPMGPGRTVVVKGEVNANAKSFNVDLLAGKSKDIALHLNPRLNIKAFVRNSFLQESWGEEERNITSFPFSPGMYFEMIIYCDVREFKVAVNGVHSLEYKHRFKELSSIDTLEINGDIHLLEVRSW

[2] = molecular target: T2, Galectin-3 (Homo sapiens, UniProt P17931); experiment: Binding affinity to human galactin-3 assessed as dissociation constant by competitive fluorescence polarization assay
[3] = species on record: Homo sapiens; experiment: Selectivity ratio of Kd for binding affinity to human galactin-8 N terminal domain to Kd for binding affinity to human galactin-3
[4] = molecular target: T1, Galectin-8; experiment: Binding affinity to galectin-8 N-terminal domain (unknown origin)
[5] = molecular target: T2, Galectin-3; experiment: Binding affinity to galectin-3 (unknown origin)
[6] = molecular target: Galectin-1 (Homo sapiens, UniProt P09382); experiment: Binding affinity to human galactin-1 assessed as dissociation constant by competitive fluorescence polarization assay
[7] = molecular target: T3, Galectin-2 (Homo sapiens, UniProt P05162); experiment: Binding affinity to human galactin-2 assessed as dissociation constant by competitive fluorescence polarization assay
T3 sequence (P05162 whole entry): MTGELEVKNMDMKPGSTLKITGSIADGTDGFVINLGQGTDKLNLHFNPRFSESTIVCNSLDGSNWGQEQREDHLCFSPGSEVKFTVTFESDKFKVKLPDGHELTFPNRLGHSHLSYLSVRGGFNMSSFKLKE

[8] = molecular target: T4, Galectin-4 (Homo sapiens, UniProt P56470); experiment: Binding affinity to human galactin-4 N terminal domain assessed as dissociation constant by competitive fluorescence polarization assay
T4 sequence (P56470 whole entry): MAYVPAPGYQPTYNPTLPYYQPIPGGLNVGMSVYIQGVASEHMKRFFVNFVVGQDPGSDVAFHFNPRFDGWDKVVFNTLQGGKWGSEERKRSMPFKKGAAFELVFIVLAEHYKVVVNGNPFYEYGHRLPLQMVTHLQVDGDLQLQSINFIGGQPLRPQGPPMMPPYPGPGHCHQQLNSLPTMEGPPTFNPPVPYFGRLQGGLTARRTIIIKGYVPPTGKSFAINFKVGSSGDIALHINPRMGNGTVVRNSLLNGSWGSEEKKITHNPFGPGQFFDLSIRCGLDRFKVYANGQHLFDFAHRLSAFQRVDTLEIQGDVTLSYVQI

[9] = molecular target: T4, Galectin-4; experiment: Binding affinity to human galactin-4 C terminal domain assessed as dissociation constant by competitive fluorescence polarization assay
[10] = molecular target: Galectin-7 (Homo sapiens, UniProt P47929); experiment: Binding affinity to human galactin-7 assessed as dissociation constant by competitive fluorescence polarization assay
[11] = molecular target: T1, Galectin-8; experiment: Binding affinity to human galactin-8 C terminal domain assessed as dissociation constant by competitive fluorescence polarization assay
[12] = molecular target: T5, Galectin-9 (Homo sapiens, UniProt O00182); experiment: Binding affinity to human galactin-9 N terminal domain assessed as dissociation constant by competitive fluorescence polarization assay
[13] = molecular target: T5, Galectin-9; experiment: Binding affinity to human galactin-9 C terminal domain assessed as dissociation constant by competitive fluorescence polarization assay
[14] = species on record: Homo sapiens; experiment: Selectivity ratio of Kd for binding affinity to human galactin-9 N terminal domain to binding affinity to human galactin-8 N terminal domain
[15] = species on record: Homo sapiens; experiment: Selectivity ratio of Kd for binding affinity to human galactin-9 C terminal domain to binding affinity to human galactin-8 N terminal domain
[16] = molecular target: T6, Galectin-8 (Homo sapiens) (UniProt O00214); experiment: Binding affinity to human galactin-8 N terminal domain assessed as dissociation constant at 1500 uM by competitive fluorescence polarization assay
T6 sequence (whole entry): T1 sequence (O00214 whole entry)

[17] = molecular target: T2, Galectin-3; experiment: Binding affinity to human galactin-3 assessed as dissociation constant at 1500 uM by competitive fluorescence polarization assay

T5 sequence (O00182 whole entry, the tested form may be a part): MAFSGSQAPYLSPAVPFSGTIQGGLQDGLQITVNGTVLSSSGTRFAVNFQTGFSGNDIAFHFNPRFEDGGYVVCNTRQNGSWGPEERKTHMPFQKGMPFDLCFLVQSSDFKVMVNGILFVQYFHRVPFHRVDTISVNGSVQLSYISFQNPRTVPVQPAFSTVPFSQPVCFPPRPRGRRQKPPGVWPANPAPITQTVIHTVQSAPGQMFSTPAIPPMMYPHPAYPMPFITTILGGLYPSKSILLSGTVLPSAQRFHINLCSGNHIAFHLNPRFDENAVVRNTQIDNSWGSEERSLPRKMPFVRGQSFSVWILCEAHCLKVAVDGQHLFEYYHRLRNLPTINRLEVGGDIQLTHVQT
T2 sequence (P17931 whole entry, the tested form may be a part): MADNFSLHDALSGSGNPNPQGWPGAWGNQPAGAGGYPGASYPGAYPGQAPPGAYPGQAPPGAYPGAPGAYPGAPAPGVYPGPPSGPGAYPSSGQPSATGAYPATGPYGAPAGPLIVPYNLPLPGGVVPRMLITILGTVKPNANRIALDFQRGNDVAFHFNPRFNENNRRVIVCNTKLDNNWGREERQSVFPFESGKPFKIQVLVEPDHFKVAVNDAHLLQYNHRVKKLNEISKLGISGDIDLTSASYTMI
Galectin-7, sequence (P47929 whole entry, the tested form may be a part): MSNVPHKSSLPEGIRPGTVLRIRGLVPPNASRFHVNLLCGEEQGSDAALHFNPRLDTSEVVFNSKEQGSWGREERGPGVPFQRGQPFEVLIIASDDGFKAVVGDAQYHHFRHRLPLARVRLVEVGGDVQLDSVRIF
Galectin-1, sequence (P09382 whole entry): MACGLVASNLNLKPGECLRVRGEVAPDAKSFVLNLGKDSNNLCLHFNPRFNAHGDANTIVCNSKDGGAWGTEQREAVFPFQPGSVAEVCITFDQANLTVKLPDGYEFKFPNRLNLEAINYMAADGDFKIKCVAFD

Compound	pKd [1]	pKd [2]	other results
CO[C@@H]1O[C@H](CO)[C@H](O)[C@H](OCc2nc3ccc(C(=O)O)cc3n2C)[C@H]1O	3.72	2.85	Selectivity ratio [3]: 7
CO[C@@H]1O[C@H](CO)[C@H](O)[C@H](OCc2ccc3ccc(C(=O)O)cc3n2)[C@H]1O	–	–	pKd [4]: 3.96; pKd [5]: 3.42
Cn1c(CO[C@@H]2[C@@H](O)[C@@H](Sc3ccc(Cl)c(Cl)c3)O[C@H](CO)[C@@H]2O)nc2ccc(C(=O)O)cc21	5.74	5.30	Selectivity ratio [3]: 25; pKd [6]: 3.89; pKd [7]: 3.66; pKd [8]: 3.89; pKd [9]: 3.92; pKd [10]: 3.72; pKd [11]: 3.12; pKd [12]: 4.80; pKd [13]: 4.35; Selectivity ratio [14]: 25
COC(=O)c1ccccc1-n1cc(CO[C@H]2[C@@H](O)[C@@H](CO)O[C@@H](Sc3ccc(C)cc3)[C@@H]2O)nn1	2.96	< 2.70	–
COC(=O)c1ccc(-n2cc(CO[C@H]3[C@@H](O)[C@@H](CO)O[C@@H](Sc4ccc(C)cc4)[C@@H]3O)nn2)cc1	3.03	< 2.70	–
CO[C@@H]1O[C@H](CO)[C@H](O)[C@H](OCc2nc3ccccc3o2)[C@H]1O	2.80	3.21	–
CO[C@@H]1O[C@H](CO)[C@H](O)[C@H](OCc2cn(-c3ccc(C(=O)O)cc3)nn2)[C@H]1O	2.89	3.72	–
CO[C@@H]1O[C@H](CO)[C@H](O)[C@H](OCc2cn(-c3cccc(C(=O)O)c3)nn2)[C@H]1O	3.19	3.30	–
COC(=O)c1ccccc1-n1cc(CO[C@H]2[C@@H](O)[C@@H](CO)O[C@@H](OC)[C@@H]2O)nn1	2.85	3.48	–
CO[C@@H]1O[C@H](CO)[C@H](O)[C@H](OCc2nc3ccccc3s2)[C@H]1O	3.06	3.29	–
O=C(O)c1ccc2nc(CO[C@@H]3[C@@H](O)[C@@H](Sc4ccc(Cl)c(Cl)c4)O[C@H](CO)[C@@H]3O)[nH]c2c1	5.55	5.39	pKd [6]: 4.06; pKd [7]: 4.00; pKd [8]: 4.11; pKd [9]: 3.80; pKd [10]: 4.37; pKd [11]: 3.35; pKd [12]: 4.89; pKd [13]: 4.74; Selectivity ratio [14]: 5; Selectivity ratio [15]: 9
COC(=O)c1ccc(-n2cc(CO[C@H]3[C@@H](O)[C@@H](CO)O[C@@H](OC)[C@@H]3O)nn2)cc1	< 2.70	3.15	–
CO[C@@H]1O[C@H](CO)[C@H](O)[C@H](OCc2cn(-c3ccccc3C(=O)O)nn2)[C@H]1O	–	3.33	Activity [16]: inactive
CO[C@@H]1O[C@H](CO)[C@H](O)[C@H](OCc2nc3ccccc3[nH]2)[C@H]1O	3.07	2.82	–
COC(=O)c1ccc2nc(CO[C@H]3[C@@H](O)[C@@H](CO)O[C@@H](OC)[C@@H]3O)n(C)c2c1	2.96	–	Activity [17]: inactive
CO[C@@H]1O[C@H](CO)[C@H](O)[C@H](OCc2nc3cc(C(=O)O)ccc3n2C)[C@H]1O	< 2.70	2.96	–
CO[C@@H]1O[C@H](CO)[C@H](O)[C@H](OCc2nc3ccccc3n2C)[C@H]1O	2.92	2.80	–
Cc1ccc(S[C@@H]2O[C@H](CO)[C@H](O)[C@H](OCc3cn(-c4ccc(C(=O)O)cc4)nn3)[C@H]2O)cc1	2.82	3.64	–
CO[C@@H]1O[C@H](CO)[C@H](O)[C@H](OCc2nc3ccc(C(=O)O)cc3[nH]2)[C@H]1O	3.51	3.23	–
COC(=O)c1cccc(-n2cc(CO[C@H]3[C@@H](O)[C@@H](CO)O[C@@H](Sc4ccc(C)cc4)[C@@H]3O)nn2)c1	2.92	3.31	–
COC(=O)c1ccc2nc(CO[C@H]3[C@@H](O)[C@@H](CO)O[C@@H](OC)[C@@H]3O)[nH]c2c1	2.92	2.80	–
O=C(O)c1ccc2ccc(CO[C@@H]3[C@@H](O)[C@@H](Sc4ccc(Cl)c(Cl)c4)O[C@H](CO)[C@@H]3O)nc2c1	–	–	pKd [4]: 5.82; pKd [5]: 5.92
CO[C@@H]1O[C@H](CO)[C@H](O)[C@H](OCc2ccc3ccccc3n2)[C@H]1O	–	–	pKd [4]: 3.15; pKd [5]: 3.21
Cc1ccc(S[C@@H]2O[C@H](CO)[C@H](O)[C@H](OCc3cn(-c4cccc(C(=O)O)c4)nn3)[C@H]2O)cc1	3.12	3.60	–
COC(=O)c1cccc(-n2cc(CO[C@H]3[C@@H](O)[C@@H](CO)O[C@@H](OC)[C@@H]3O)nn2)c1	3.09	3.29	–
Cc1ccc(S[C@@H]2O[C@H](CO)[C@H](O)[C@H](OCc3cn(-c4ccccc4C(=O)O)nn3)[C@H]2O)cc1	2.92	3.16	–
CCOC(=O)c1ccc2c(c1)nc(CO[C@H]1[C@@H](O)[C@@H](CO)O[C@@H](OC)[C@@H]1O)n2C	2.80	2.70	–
